Experimental data published in the supplement of paper PMC10307832.

Columns and labels:
Assay in all cases: relative viability (nuclei count vs DMSO), 5 days (fraction); higher = more cells survive
NCI-H647 = tested on: NCI-H647
Procedure, shortened: (§1)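 Relative viability is defined as nuclei in treated wells over nuclei in vehicle wells. Duplicate plates were run and medians reported. Lung cancer cell lines in 1536-well plates were dosed by pin tool one day after seeding, with one drug or with a fixed anchor-drug dose plus five library-drug doses (not always all listed) in √10 steps, and nuclei were counted after 5 days.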

UMC-11 = tested on: UMC-11
Procedure, shortened: as §1

COR-L23 = tested on: COR-L23
Procedure, shortened: as §1

NCI-H1650 = tested on: NCI-H1650
Procedure, shortened: as §1

NCI-H322M = tested on: NCI-H322M
Procedure, shortened: as §1

NCI-H441 = tested on: NCI-H441
Procedure, shortened: as §1

EPLC-272H = tested on: EPLC-272H
Procedure, shortened: as §1

HCC-15 = tested on: HCC-15
Procedure, shortened: as §1

H3255 = tested on: H3255
Procedure, shortened: as §1

SW 900 = tested on: SW 900
Procedure, shortened: as §1

201T = tested on: 201T
Procedure, shortened: as §1

NCI-H2405 = tested on: NCI-H2405
Procedure, shortened: as §1

NCI-H1734 = tested on: NCI-H1734
Procedure, shortened: as §1

NCI-H1793 = tested on: NCI-H1793
Procedure, shortened: as §1

NCI-H2170 = tested on: NCI-H2170
Procedure, shortened: as §1

NCI-H2347 = tested on: NCI-H2347
Procedure, shortened: as §1

NCI-H2023 = tested on: NCI-H2023
Procedure, shortened: as §1

NCI-H520 = tested on: NCI-H520
Procedure, shortened: as §1

PC-14 = tested on: PC-14
Procedure, shortened: as §1

LOU-NH91 = tested on: LOU-NH91
Procedure, shortened: as §1

NCI-H3122 = tested on: NCI-H3122
Procedure, shortened: as §1

O=c1cc(N2CCOCC2)oc2c(-c3cccc4c3sc3ccccc34)cccc12 + O=C(c1cc(Cc2n[nH]c(=O)c3ccccc23)ccc1F)N1CCN(C(=O)C2CC2)CC1 [Olaparib] (partner 8 µM)
relative viability (NCI-H647; first compound 0.01 µM): 0.538 | relative viability (NCI-H647; first compound 0.03162 µM): 0.682 | relative viability (NCI-H647; first compound 0.1 µM): 0.524 | relative viability (NCI-H647; first compound 0.3162 µM): 0.655 | relative viability (NCI-H647; first compound 1 µM): 0.592 | relative viability (UMC-11; first compound 0.01 µM): 0.359 | relative viability (UMC-11; first compound 0.03162 µM): 0.432 | relative viability (UMC-11; first compound 0.1 µM): 0.895 | relative viability (UMC-11; first compound 0.3162 µM): 0.699 | relative viability (UMC-11; first compound 1 µM): 0.404 | relative viability (COR-L23; first compound 0.01 µM): 0.394 | relative viability (COR-L23; first compound 0.03162 µM): 0.352 | relative viability (COR-L23; first compound 0.1 µM): 0.327 | relative viability (COR-L23; first compound 0.3162 µM): 0.318 | relative viability (COR-L23; first compound 1 µM): 0.37 | relative viability (NCI-H1650; first compound 0.01 µM): 0.667 | relative viability (NCI-H1650; first compound 0.03162 µM): 0.752 | relative viability (NCI-H1650; first compound 0.1 µM): 0.94 | relative viability (NCI-H1650; first compound 0.3162 µM): 0.739 | relative viability (NCI-H1650; first compound 1 µM): 0.624 | relative viability (NCI-H322M; first compound 0.01 µM): 0.688 | relative viability (NCI-H322M; first compound 0.03162 µM): 0.827 | relative viability (NCI-H322M; first compound 0.3162 µM): 0.73 | relative viability (NCI-H322M; first compound 1 µM): 0.725 | relative viability (NCI-H441; first compound 0.01 µM): 0.485 | relative viability (NCI-H441; first compound 0.03162 µM): 0.48 | relative viability (NCI-H441; first compound 0.1 µM): 0.643 | relative viability (NCI-H441; first compound 0.3162 µM): 0.631 | relative viability (NCI-H441; first compound 1 µM): 0.585 | relative viability (EPLC-272H; first compound 0.01 µM): 0.761 | relative viability (EPLC-272H; first compound 0.03162 µM): 0.934 | relative viability (EPLC-272H; first compound 0.1 µM): 0.848 | relative viability (EPLC-272H; first compound 0.3162 µM): 0.776 | relative viability (EPLC-272H; first compound 1 µM): 0.824 | relative viability (HCC-15; first compound 0.01 µM): 0.692 | relative viability (HCC-15; first compound 0.03162 µM): 0.742 | relative viability (HCC-15; first compound 0.1 µM): 0.775 | relative viability (HCC-15; first compound 0.3162 µM): 0.74 | relative viability (HCC-15; first compound 1 µM): 0.735 | relative viability (H3255; first compound 0.01 µM): 0.544 | relative viability (H3255; first compound 0.03162 µM): 0.517 | relative viability (H3255; first compound 0.1 µM): 0.567 | relative viability (H3255; first compound 0.3162 µM): 0.512 | relative viability (H3255; first compound 1 µM): 0.53 | relative viability (SW 900; first compound 0.03162 µM): 0.918 | relative viability (SW 900; first compound 0.1 µM): 0.794 | relative viability (SW 900; first compound 0.3162 µM): 0.719 | relative viability (SW 900; first compound 1 µM): 0.572 | relative viability (201T; first compound 0.01 µM): 0.817 | relative viability (201T; first compound 0.03162 µM): 0.842 | relative viability (201T; first compound 0.1 µM): 0.86 | relative viability (201T; first compound 0.3162 µM): 0.815 | relative viability (201T; first compound 1 µM): 0.866 | relative viability (NCI-H2405; first compound 0.01 µM): 0.952 | relative viability (NCI-H2405; first compound 0.03162 µM): 0.912 | relative viability (NCI-H2405; first compound 0.1 µM): 0.945 | relative viability (NCI-H2405; first compound 0.3162 µM): 0.832 | relative viability (NCI-H2405; first compound 1 µM): 0.93 | relative viability (NCI-H1734; first compound 0.01 µM): 0.686 | relative viability (NCI-H1734; first compound 0.03162 µM): 0.638 | relative viability (NCI-H1734; first compound 0.1 µM): 0.685 | relative viability (NCI-H1734; first compound 0.3162 µM): 0.638 | relative viability (NCI-H1734; first compound 1 µM): 0.652 | relative viability (NCI-H1793; first compound 0.01 µM): 0.77 | relative viability (NCI-H1793; first compound 0.03162 µM): 0.857 | relative viability (NCI-H1793; first compound 0.1 µM): 0.928 | relative viability (NCI-H1793; first compound 0.3162 µM): 0.657 | relative viability (NCI-H1793; first compound 1 µM): 0.738 | relative viability (NCI-H2170; first compound 0.01 µM): 0.673 | relative viability (NCI-H2170; first compound 0.03162 µM): 0.589 | relative viability (NCI-H2170; first compound 0.1 µM): 0.526 | relative viability (NCI-H2170; first compound 0.3162 µM): 0.53 | relative viability (NCI-H2170; first compound 1 µM): 0.598 | relative viability (NCI-H2347; first compound 0.01 µM): 0.597 | relative viability (NCI-H2347; first compound 0.03162 µM): 0.541 | relative viability (NCI-H2347; first compound 0.1 µM): 0.553 | relative viability (NCI-H2347; first compound 0.3162 µM): 0.621 | relative viability (NCI-H2347; first compound 1 µM): 0.551 | relative viability (NCI-H2023; first compound 0.01 µM): 0.514 | relative viability (NCI-H2023; first compound 0.03162 µM): 0.471 | relative viability (NCI-H2023; first compound 0.1 µM): 0.491 | relative viability (NCI-H2023; first compound 0.3162 µM): 0.513 | relative viability (NCI-H2023; first compound 1 µM): 0.468 | relative viability (NCI-H520; first compound 0.01 µM): 0.42 | relative viability (NCI-H520; first compound 0.03162 µM): 0.406 | relative viability (NCI-H520; first compound 0.1 µM): 0.366 | relative viability (NCI-H520; first compound 0.3162 µM): 0.351 | relative viability (NCI-H520; first compound 1 µM): 0.338 | relative viability (PC-14; first compound 0.01 µM): 0.285 | relative viability (PC-14; first compound 0.03162 µM): 0.21 | relative viability (PC-14; first compound 0.1 µM): 0.325 | relative viability (PC-14; first compound 0.3162 µM): 0.282 | relative viability (PC-14; first compound 1 µM): 0.269 | relative viability (LOU-NH91; first compound 0.01 µM): 0.855 | relative viability (LOU-NH91; first compound 0.03162 µM): 0.916 | relative viability (LOU-NH91; first compound 0.1 µM): 0.96 | relative viability (LOU-NH91; first compound 0.3162 µM): 0.921 | relative viability (LOU-NH91; first compound 1 µM): 0.884 | relative viability (NCI-H3122; first compound 0.01 µM): 0.604 | relative viability (NCI-H3122; first compound 0.03162 µM): 0.679 | relative viability (NCI-H3122; first compound 0.1 µM): 0.566 | relative viability (NCI-H3122; first compound 0.3162 µM): 0.606 | relative viability (NCI-H3122; first compound 1 µM): 0.614
